# Source: patent US20230172971A1, “ANTIBIOTIC AND ANTI-INFLAMMATORY COMPOSITIONS AND METHODS OF USE” (priority 2020, published 2023)
# Read-outs that look alike come from different tables or passages of the source.
# Columns and labels:
# MRSA OU6 [1] = test: MicroScan Walkaway MIC panel, MRSA OU6; format: cell-based, Staphylococcus aureus; settings: for MIC: Staphylococcus aureus
# Description: (§1) The multi-drug resistance characteristics of the clinical isolates was confirmed using the Beckman Coulter MicroScan Walkaway™ 96plus with the PC33 gram positive panel. The MIC values are listed below.
# MRSA OU11 [2] = test: MicroScan Walkaway MIC panel, MRSA OU11; format: cell-based, Staphylococcus aureus; settings: for MIC: Staphylococcus aureus
# Description: as §1
# PA OU19 [3] = test: MicroScan Walkaway MIC panel, PA OU19; format: cell-based, P. aeruginosa
# MRSA OU6 [4] = test: Checkerboard assay erythromycin + 600-Da BPEI, MRSA OU6; format: cell-based, Staphylococcus aureus; settings: for MIC Antibiotic: MRSA OU6, antibiotic alone
# Description: (§2) Checkerboard assays were conducted to identify synergy between BPEI and antibiotics against bacteria. Serial dilutions of antimicrobial agents (BPEI and antibiotic solutions) were added to a 96-well microtiter plate with 100 μL CAMHB per well. Untreated control and positive control (5% bleach) were also conducted. Bacterial inoculation (5×10^5 CFU/mL) from an overnight culture was added to the plate (1 μL/well) and incubated at 37° C. for 20 hr. The change in optical density at 600 nm (ΔOD600) was measured using a Tecan Infinite M20 plate reader immediately after inoculation Minimum inhibitory concentration (MIC) of each drug is determined as the lowest concentration that inhibited cell growth (ΔOD600<0.05). Fractional inhibitory concentration index (FICI) and synergistic effects are determined using EUCAST guidelines: synergy (FICI≤0.5), additivity (0.5<FICI<1), and indifference (FICI>1). Each assay was done in triplicate.
# MRSA OU11 [5] = test: Checkerboard assay erythromycin + 600-Da BPEI, MRSA OU11; format: cell-based, Staphylococcus aureus; settings: for MIC Antibiotic: MRSA OU11, antibiotic alone
# Description: as §2
# PA OU19 [6] = test: Checkerboard assay erythromycin + 600-Da BPEI, PA OU19; format: cell-based, P. aeruginosa
# Description: as §2
# [7] = test system: HEKa cells (primary human epithelial keratinocytes); test: Cytokine release (IL-8, IL-6, TNF-alpha) by HEKa cells, Quantikine ELISA; format: cell-based; settings: PG or LPS 5 μg/mL, 24 hr; for TNF-α concentration released by HEKa cells: untreated control <10; for IL-6 concentration released by HEKa cells: untreated control <50
# Description: (§3) Materials included HEKa cells (primary human epithelial keratinocytes; Invitrogen), Epilife Medium and growth supplement (Invitrogen), lipopolysaccharides from Escherichia coli O111:B4 (Sigma), peptidoglycan from Staphylococcus aureus (Sigma), and Human (IL-8/CXCL8, IL-6, TNF-alpha) Quantikine ELISA Kits (R&D). HEKa cells were seeded in T-75 tissue culture flasks with Epilife media supplemented with human keratinocyte growth supplement 100 ug/mL and 100 U/mL of pen/strep and incubated at 37° C. in a CO2 incubator. Fresh media was replaced every 2 days. Until the cell confluence reach 80-90%, they were split into a new passage. To avoid cell senescence, all experiments were performed with cells at passage 3-7. HEKa cells were cultured in a new 24-well plate until 80-90% confluence (total V=1 mL/well). […] The cell media was collected in 1.5 mL Eppendorf microtubes and stored at −20° C. until ELISA assays were performed. Concentrations of IL-8, IL-6, TNF-α cytokines released into the media were quantified followed the instructions of Quantikine Colorimetric ELISA assay kits (R&D Systems). Absorbance was measured at 450 nm and 570 nm. Final corrected absorbance was the subtraction […].
# as §3, with “HEKa” for “Materials included HEKa cells (primary human epithelial keratinocytes; Invitrogen), Epilife Medium and growth supplement (Invitrogen), lipopolysaccharides from Escherichia coli O111:B4 (Sigma), peptidoglycan from Staphylococcus aureus (Sigma), and Human (IL-8/CXCL8, IL-6, TNF-alpha) Quantikine ELISA Kits (R&D). HEKa”, “senescent,” for “senescence,”, “volume=1” for “V=1”, “IL-8 cytokine” for “IL-8, IL-6, TNF-α cytokines”
# K. pneumoniae BAA-2146 = test: Checkerboard assay, CRE K. pneumoniae BAA-2146 (NDM-1); format: cell-based, Klebsiella pneumoniae; settings: NDM-1 strain; over the susceptibility breakpoint
# Description: (§4) Checkerboard assays were used to determine the synergistic effect between PEG350-BPEI or 600 Da BPEI and antibiotics against drug resistant strains growing in cation-adjusted Mueller-Hinton broth (CAMHB). […] Cells were grown at 37° C. The change in OD600 (optical density at 600 nm) was measured and recorded after 24 hr of treatment. Each checkerboard trial was done in triplicate using sterile Greiner CellStar™ flat bottom polystyrene plates, catalog #655180.
# E. coli BAA-2452 = test: Checkerboard assay, CRE E. coli BAA-2452 (NDM-1); format: cell-based, Escherichia coli; settings: NDM-1 strain; over the susceptibility breakpoint
# Description: as §4
# [8] = test system: K. pneumoniae BAA-1705(blaKPC+/blaNDM−); test: Checkerboard assay, CRE K. pneumoniae BAA-1705 (blaKPC+/blaNDM-); format: cell-based, Klebsiella pneumoniae; settings: FIGS. 11A and 11C
# Description: as §4
# [9] = test system: Pseudomonas aeruginosa strain BAA-47; test: Checkerboard assay azithromycin + 600-Da BPEI, P. aeruginosa BAA-47; format: cell-based
# Description: as §2
# [10] = Pseudomonas aeruginosa, read-out: MIC
# [11] = MRSA OU6, MicroScan, read-out: MIC
# [12] = MRSA OU11, MicroScan, read-out: MIC
# [13] = MRSA OU6, erythromycin + 600-Da BPEI
# [14] = MRSA OU11, erythromycin + 600-Da BPEI
# [15] = PA OU19, erythromycin + 600-Da BPEI
Molecule,"susceptibility interpretation (MRSA OU6 [1]; MRSA OU6, MicroScan)","susceptibility interpretation (MRSA OU11 [2]; MRSA OU11, MicroScan)",susceptibility interpretation (PA OU19 [3]),MIC (MRSA OU6 [1]; [11]),MIC (MRSA OU11 [2]; [12]),other results
CN[C@H](CC(C)C)C(=O)N[C@H]1C(=O)N[C@@H](CC(N)=O)C(=O)N[C@H]2C(=O)N[C@H]3C(=O)N[C@H](C(=O)N[C@H](C(=O)O)c4cc(O)cc(O)c4-c4cc3ccc4O)[C@H](O)c3ccc(c(Cl)c3)Oc3cc2cc(c3O[C@@H]2O[C@H](CO)[C@@H](O)[C@H](O)[C@H]2O[C@H]2C[C@](C)(N)[C@H](O)[C@H](C)O2)Oc2ccc(cc2Cl)[C@H]1O [vancomycin],susceptible,susceptible,–,–,–,MIC (MRSA OU6 [1]; MRSA): 2 mg/L; MIC (MRSA OU11 [2]; MRSA): 1 mg/L
C[C@H]1[C@H](NC(=O)/C(=N\OC(C)(C)C(=O)O)c2csc(N)n2)C(=O)N1S(=O)(=O)O [aztreonam],–,–,resistant,–,–,MIC (PA OU19 [3]; [10]): 16 mg/L
NC[C@H]1O[C@H](O[C@H]2[C@H](O)[C@@H](O[C@H]3O[C@H](CO)[C@@H](O)[C@H](N)[C@H]3O)[C@H](N)C[C@@H]2N)[C@H](N)C[C@@H]1O [tobramycin],–,–,susceptible,–,–,MIC (PA OU19 [3]; [10]): 4 mg/L
CC(=O)NC[C@H]1CN(c2ccc(N3CCOCC3)c(F)c2)C(=O)O1 [linezolid],susceptible,susceptible,–,2 mg/L,2 mg/L,–
CC[C@H]1OC(=O)[C@H](C)[C@@H](O[C@H]2C[C@@](C)(OC)[C@@H](O)[C@H](C)O2)[C@H](C)[C@@H](O[C@@H]2O[C@H](C)C[C@H](N(C)C)[C@H]2O)[C@](C)(O)C[C@@H](C)C(=O)[C@H](C)[C@@H](O)[C@]1(C)O [erythromycin],resistant,resistant,–,> 4 mg/L,> 4 mg/L,"MIC Antibiotic (MRSA OU6 [4]): over 2000 μg/mL; MIC Antibiotic (MRSA OU6 [4]; listed as Erythromycin): >2000 mg/L; FICI (MRSA OU6 [4]; [13]): 0.26; Outcome (MRSA OU6 [4]; [13]): Synergy; MIC Antibiotic with 16 μg/ml BPEI (MRSA OU6 [4]; MRSA OU6, with 16 μg/ml 600-Da BPEI): 8 mg/L; MIC Antibiotic (MRSA OU11 [5]): over 2000 μg/mL; MIC Antibiotic (MRSA OU11 [5]; listed as Erythromycin): >2000 mg/L; FICI (MRSA OU11 [5]; [14]): 0.31; Outcome (MRSA OU11 [5]; [14]): Synergy; FICI (PA OU19 [6]; [15]): 0.26; Outcome (PA OU19 [6]; [15]): Synergy; MIC Antibiotic with 16 μg/ml BPEI (PA OU19 [6]; PA OU19, with 16 μg/ml 600-Da BPEI): 2 mg/L"
peptidoglycan [PG],–,–,–,–,–,TNF-α concentration released by HEKa cells [7]: ~30 pg/mL; IL-6 concentration released by HEKa cells [7]: ~350 pg/mL
CC(C)(O/N=C(\C(=O)N[C@@H]1C(=O)N2C(C(=O)[O-])=C(C[n+]3ccccc3)CS[C@H]12)c1csc(N)n1)C(=O)O [ceftazidime],–,–,resistant,–,–,MIC (PA OU19 [3]; [10]): 16 mg/L
CCCCCCCCCC(=O)N[C@@H](Cc1c[nH]c2ccccc12)C(=O)N[C@H](CC(N)=O)C(=O)N[C@@H](CC(=O)O)C(=O)N[C@@H]1C(=O)NCC(=O)N[C@@H](CCCN)C(=O)N[C@@H](CC(=O)O)C(=O)N[C@H](C)C(=O)N[C@@H](CC(=O)O)C(=O)NCC(=O)N[C@H](CO)C(=O)N[C@@H]([C@H](C)CC(=O)O)C(=O)N[C@@H](CC(=O)c2ccccc2N)C(=O)O[C@@H]1C [daptomycin],susceptible,susceptible,–,≤ 0.5 mg/L,≤ 0.5 mg/L,–
CN(C)[C@@H]1C(O)=C(C(N)=O)C(=O)[C@@]2(O)C(O)=C3C(=O)c4c(O)cccc4[C@@](C)(O)[C@H]3C[C@@H]12 [tetracycline],–,–,–,≤ 4 mg/L,≤ 4 mg/L,–
CCC[C@@H]1C[C@@H](C(=O)N[C@@H]([C@H]2O[C@H](SC)[C@H](O)[C@@H](O)[C@H]2O)[C@H](C)Cl)N(C)C1 [clindamycin],–,–,–,> 4 mg/L,> 4 mg/L,–
gentamicin,susceptible,susceptible,susceptible,–,–,MIC (PA OU19 [3]): 4 mg/L
C[C@@H](O)[C@H]1C(=O)N2C(C(=O)O)=C(SCCN=CN)C[C@H]12 [imipenem],–,–,–,–,–,MIC of the carbapenem without potentiator (K. pneumoniae BAA-2146): > 2 mg/L; MIC of the carbapenem without potentiator (E. coli BAA-2452): > 2 mg/L
CO/N=C(\C(=O)N[C@@H]1C(=O)N2C(C(=O)[O-])=C(C[N+]3(C)CCCC3)CS[C@H]12)c1csc(N)n1 [cefepime],–,–,resistant,–,–,MIC (PA OU19 [3]; [10]): 16 mg/L
C[C@@H](O)[C@H]1C(=O)N2C(C(=O)O)=C(S[C@@H]3CN[C@H](C(=O)N(C)C)C3)[C@H](C)[C@H]12 [meropenem],–,–,resistant,–,–,MIC of the carbapenem without potentiator (K. pneumoniae BAA-2146): > 8 mg/L; MIC of the carbapenem without potentiator (E. coli BAA-2452): > 8 mg/L; susceptibility of the strain to the carbapenem [8]: resistant; MIC (PA OU19 [3]; [10]): 8 mg/L
Cc1onc(-c2ccccc2)c1C(=O)N[C@@H]1C(=O)N2[C@@H]1SC(C)(C)[C@@H]2C(=O)O [oxacillin],resistant,resistant,–,> 2 mg/L,> 2 mg/L,–
CC[C@H]1OC(=O)[C@H](C)[C@@H](O[C@H]2C[C@@](C)(OC)[C@@H](O)[C@H](C)O2)[C@H](C)[C@@H](O[C@@H]2O[C@H](C)C[C@H](N(C)C)[C@H]2O)[C@](C)(O)C[C@@H](C)CN(C)[C@H](C)[C@@H](O)[C@]1(C)O [azithromycin],–,–,–,–,–,growth inhibition by the combination with 600-Da BPEI [9]: inhibits growth
lipopolysaccharide [LPS],–,–,–,–,–,TNF-α concentration released by HEKa cells [7]: ~30 pg/mL; IL-6 concentration released by HEKa cells [7]: ~350 pg/mL
